Measurements as given in ChEMBL document CHEMBL1201862, “PubChem BioAssay data set” (2004).
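48-hour exposure; five concentrations; linearly interpolated endpoints. GI50: concentration for 50% inhibition of growth.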 The source made the active and inactive calls. No stated cut-off is given here; in the data, active = GI50 up to about 1.1 µM and inactive = higher.

What was measured:
Test in all cases: DTP human tumour cell line panel, 48 h
A549 = system: A549
CAKI-1 = system: CAKI-1
DLD-1 = system: DLD-1
HCC 2998 = system: HCC 2998
HCT-116 = system: HCT-116
HCT-15 = system: HCT-15
HOP-92 = system: HOP-92
NCI-H23 = system: NCI-H23
NCI-H460 = system: NCI-H460
NCI-H522 = system: NCI-H522
SF-295 = system: SF-295
SF-539 = system: SF-539
SK-MEL-28 = system: SK-MEL-28
SK-MEL-2 = system: SK-MEL-2
SW-620 = system: SW-620
UO-31 = system: UO-31
BT-549 = system: BT-549
MCF7 = system: MCF7
PC-3 = system: PC-3
SR = system: SR

With O=C1Cc2nc(CO)c(CO)c(CO)c2CO1 the GI50 (A549) was > 100 µM (inactive), the GI50 (CAKI-1) was > 100 µM (inactive) and the GI50 (DLD-1) was > 100 µM (inactive). The GI50 (HCC 2998) was > 100 µM (inactive), the GI50 (HCT-116) was > 100 µM (inactive) and the GI50 (HCT-15) was greater than 100 µM. The GI50 (HOP-92) was > 100 µM (inactive), the GI50 (NCI-H23) was > 100 µM (inactive) and the GI50 (NCI-H460) was > 100 µM (inactive). For the same molecule, the GI50 (NCI-H522) was > 100 µM (inactive), the GI50 (SF-295) was > 100 µM (inactive) and the GI50 (SF-539) was > 100 µM (inactive). The GI50 (SK-MEL-28) was > 100 µM (inactive), the GI50 (SK-MEL-2) was > 100 µM (inactive) and the GI50 (SW-620) was > 100 µM (inactive). The GI50 (UO-31) was > 100 µM (inactive).
In the case of O=C1CCCCCCCCCCC(=O)N2CCOCCOCCN1Cc1cccc(n1)C2, the GI50 (A549) is reported as > 100 µM (inactive), the GI50 (CAKI-1) is reported as > 100 µM (inactive) and the GI50 (DLD-1) is reported as > 100 µM (inactive). For the same molecule, the GI50 (HCC 2998) was > 100 µM (inactive), the GI50 (HCT-116) was > 100 µM (inactive) and the GI50 (HCT-15) was greater than 100 µM. The GI50 (NCI-H23) was > 100 µM (inactive), the GI50 (NCI-H460) was > 100 µM (inactive) and the GI50 (NCI-H522) was 85.1 µM (inactive). For the same molecule, the GI50 (SF-295) was 65.5 µM (inactive), the GI50 (SF-539) was 83.2 µM (inactive) and the GI50 (SK-MEL-28) was > 100 µM (inactive). For the same molecule, the GI50 (SK-MEL-2) was > 100 µM (inactive), the GI50 (SW-620) was > 100 µM (inactive) and the GI50 (UO-31) was > 100 µM (inactive).
In the case of COc1ccc(C(=C2C(=O)OC(=O)C2=C(C)C)c2ccc(OC)cc2)cc1, the GI50 (A549) is reported as 67.6 µM (inactive), the GI50 (BT-549) is reported as 70.5 µM (inactive) and the GI50 (CAKI-1) is reported as > 100 µM (inactive). For the same molecule, the GI50 (HCC 2998) was > 100 µM (inactive), the GI50 (HCT-116) was > 100 µM (inactive) and the GI50 (HCT-15) was 51.9 µM. For the same molecule, the GI50 (HOP-92) was > 100 µM (inactive), the GI50 (MCF7) was > 100 µM (inactive) and the GI50 (NCI-H23) was > 100 µM (inactive). For the same molecule, the GI50 (NCI-H460) was > 100 µM (inactive), the GI50 (NCI-H522) was 23.2 µM (inactive) and the GI50 (PC-3) was 60.4 µM (inactive). The GI50 (SF-295) was 73.5 µM (inactive), the GI50 (SF-539) was > 100 µM (inactive) and the GI50 (SK-MEL-28) was > 100 µM (inactive). The GI50 (SK-MEL-2) was 53.8 µM (inactive), the GI50 (SR) was 38.5 µM (inactive) and the GI50 (SW-620) was > 100 µM (inactive). The GI50 (UO-31) was > 100 µM (inactive).
With COC(=O)CC(C#N)(OP1(=O)OC(c2ccccc2)C(C)N1C)c1ccccc1 (configuration not stated) the GI50 (A549) was 34.3 µM (inactive), the GI50 (BT-549) was 36.2 µM (inactive) and the GI50 (CAKI-1) was 25.4 µM (inactive). For the same molecule, the GI50 (HCC 2998) was 16.6 µM (inactive), the GI50 (HCT-116) was 24.2 µM (inactive) and the GI50 (HCT-15) was 28.6 µM. For the same molecule, the GI50 (HOP-92) was 32.3 µM (inactive), the GI50 (MCF7) was 28.2 µM (inactive) and the GI50 (NCI-H23) was 31.5 µM (inactive). The GI50 (NCI-H460) was 20.4 µM (inactive), the GI50 (NCI-H522) was 59 µM (inactive) and the GI50 (PC-3) was 37 µM (inactive). For the same molecule, the GI50 (SF-295) was 42 µM (inactive), the GI50 (SF-539) was 37.5 µM (inactive) and the GI50 (SK-MEL-28) was 31.1 µM (inactive). For the same molecule, the GI50 (SK-MEL-2) was 27.2 µM (inactive), the GI50 (SR) was 25.9 µM (inactive) and the GI50 (SW-620) was 17.3 µM (inactive). For the same molecule, the GI50 (UO-31) was 12.1 µM (inactive).
With CC1=NN(c2nc(N)nc(/C(C#N)=C/c3cccn3-c3cc(Cl)cc(Cl)c3)n2)C(C)(C)C1 the GI50 (A549) was > 100 µM (inactive), the GI50 (BT-549) was > 100 µM (inactive) and the GI50 (CAKI-1) was > 100 µM (inactive). The GI50 (HCC 2998) was > 100 µM (inactive), the GI50 (HCT-116) was > 100 µM (inactive) and the GI50 (HCT-15) was greater than 100 µM. The GI50 (HOP-92) was > 100 µM (inactive), the GI50 (MCF7) was > 100 µM (inactive) and the GI50 (NCI-H23) was > 100 µM (inactive). For the same molecule, the GI50 (NCI-H460) was > 100 µM (inactive), the GI50 (NCI-H522) was > 100 µM (inactive) and the GI50 (PC-3) was 11.5 µM (inactive). For the same molecule, the GI50 (SF-295) was > 100 µM (inactive), the GI50 (SF-539) was > 100 µM (inactive) and the GI50 (SK-MEL-28) was > 100 µM (inactive). The GI50 (SK-MEL-2) was > 100 µM (inactive), the GI50 (SR) was 1.42 µM (inactive) and the GI50 (SW-620) was > 100 µM (inactive). The GI50 (UO-31) was > 100 µM (inactive).
With COc1ccc(-c2nc(N(C)C)c3ccccc3n2)cc1 the GI50 (A549) was 6.1 µM (inactive), the GI50 (BT-549) was 14.2 µM (inactive) and the GI50 (CAKI-1) was 14 µM (inactive). The GI50 (HCC 2998) was 6 µM (inactive), the GI50 (HCT-116) was 4.57 µM (inactive) and the GI50 (HCT-15) was 12.1 µM. For the same molecule, the GI50 (HOP-92) was 12.4 µM (inactive), the GI50 (MCF7) was 11 µM (inactive) and the GI50 (NCI-H23) was 16 µM (inactive). For the same molecule, the GI50 (NCI-H460) was 10.8 µM (inactive), the GI50 (NCI-H522) was 7.96 µM (inactive) and the GI50 (PC-3) was 24 µM (inactive). For the same molecule, the GI50 (SF-295) was 14.2 µM (inactive), the GI50 (SF-539) was 20.4 µM (inactive) and the GI50 (SK-MEL-28) was 14.9 µM (inactive). For the same molecule, the GI50 (SK-MEL-2) was 20.5 µM (inactive), the GI50 (SR) was 10.8 µM (inactive) and the GI50 (SW-620) was 9.48 µM (inactive). For the same molecule, the GI50 (UO-31) was 3.36 µM (inactive).
With CN(C)c1ccc(/C=C/c2ccc(/C=C/c3ccc(N(C)C)cc3)cc2)cc1 the GI50 (A549) was 95.9 µM (inactive), the GI50 (CAKI-1) was > 100 µM (inactive) and the GI50 (DLD-1) was 33.6 µM (inactive). For the same molecule, the GI50 (HCC 2998) was > 100 µM (inactive), the GI50 (HCT-116) was 83.9 µM (inactive) and the GI50 (HCT-15) was greater than 100 µM. The GI50 (HOP-92) was 92.5 µM (inactive), the GI50 (NCI-H23) was 94.6 µM (inactive) and the GI50 (NCI-H460) was > 100 µM (inactive). For the same molecule, the GI50 (NCI-H522) was > 100 µM (inactive), the GI50 (SF-295) was 89.1 µM (inactive) and the GI50 (SF-539) was > 100 µM (inactive). For the same molecule, the GI50 (SK-MEL-28) was > 100 µM (inactive), the GI50 (SK-MEL-2) was > 100 µM (inactive) and the GI50 (SW-620) was > 100 µM (inactive). The GI50 (UO-31) was 41.2 µM (inactive).
With CC(=O)OCc1ccc2oc(=O)c(C(=O)Oc3ccccc3)cc2c1 the GI50 (A549) was > 100 µM (inactive), the GI50 (BT-549) was > 100 µM (inactive) and the GI50 (CAKI-1) was 20 µM (inactive). For the same molecule, the GI50 (HCC 2998) was > 100 µM (inactive), the GI50 (HCT-116) was 15.6 µM (inactive) and the GI50 (HCT-15) was 19.5 µM. The GI50 (HOP-92) was 20.3 µM (inactive), the GI50 (MCF7) was 30.3 µM (inactive) and the GI50 (NCI-H23) was 32.6 µM (inactive). The GI50 (NCI-H460) was 67.1 µM (inactive), the GI50 (NCI-H522) was > 100 µM (inactive) and the GI50 (PC-3) was 16.2 µM (inactive). For the same molecule, the GI50 (SF-295) was > 100 µM (inactive), the GI50 (SF-539) was > 100 µM (inactive) and the GI50 (SK-MEL-28) was 86.9 µM (inactive). For the same molecule, the GI50 (SK-MEL-2) was > 100 µM (inactive), the GI50 (SR) was 33.3 µM (inactive) and the GI50 (SW-620) was 32.9 µM (inactive). For the same molecule, the GI50 (UO-31) was 35.2 µM (inactive).
